This is an account of results in ChEMBL document CHEMBL1140518, “Unique spirocyclopiperazinium salt III: further investigation of monospirocyclopiperazinium (MSPZ) salts as potential analgesics” (Bioorg Med Chem Lett, 2007).

Broadly, the IC50 is the concentration needed to halve the response being measured. A word on the LD50: it is the dose expected to kill half of the subjects tested.

Bounds are passed on as bounds.

One test deals with Neuronal acetylcholine receptor; alpha4/beta2 (Homo sapiens, UniProt P17787+P43681). The test can be described thus: Inhibition of alpha-4-beta-2 nAChR. It is filed as protein-complex assay.
Sequence of Neuronal acetylcholine receptor; alpha4/beta2 (P17787 whole entry): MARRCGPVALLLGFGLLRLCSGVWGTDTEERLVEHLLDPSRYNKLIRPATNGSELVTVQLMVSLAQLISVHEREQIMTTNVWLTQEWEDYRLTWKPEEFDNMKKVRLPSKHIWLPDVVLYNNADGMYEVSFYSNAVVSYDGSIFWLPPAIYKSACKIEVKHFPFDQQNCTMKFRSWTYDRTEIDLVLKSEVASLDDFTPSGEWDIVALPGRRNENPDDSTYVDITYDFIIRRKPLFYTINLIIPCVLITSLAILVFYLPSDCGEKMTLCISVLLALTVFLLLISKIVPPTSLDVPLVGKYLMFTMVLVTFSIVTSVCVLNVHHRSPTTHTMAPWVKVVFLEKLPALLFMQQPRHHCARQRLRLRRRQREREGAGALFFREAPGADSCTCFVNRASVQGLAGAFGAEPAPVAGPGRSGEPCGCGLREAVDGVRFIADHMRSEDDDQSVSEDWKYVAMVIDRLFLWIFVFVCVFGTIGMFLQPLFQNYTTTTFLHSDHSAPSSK
Sequence of Neuronal acetylcholine receptor; alpha4/beta2 (P43681 whole entry): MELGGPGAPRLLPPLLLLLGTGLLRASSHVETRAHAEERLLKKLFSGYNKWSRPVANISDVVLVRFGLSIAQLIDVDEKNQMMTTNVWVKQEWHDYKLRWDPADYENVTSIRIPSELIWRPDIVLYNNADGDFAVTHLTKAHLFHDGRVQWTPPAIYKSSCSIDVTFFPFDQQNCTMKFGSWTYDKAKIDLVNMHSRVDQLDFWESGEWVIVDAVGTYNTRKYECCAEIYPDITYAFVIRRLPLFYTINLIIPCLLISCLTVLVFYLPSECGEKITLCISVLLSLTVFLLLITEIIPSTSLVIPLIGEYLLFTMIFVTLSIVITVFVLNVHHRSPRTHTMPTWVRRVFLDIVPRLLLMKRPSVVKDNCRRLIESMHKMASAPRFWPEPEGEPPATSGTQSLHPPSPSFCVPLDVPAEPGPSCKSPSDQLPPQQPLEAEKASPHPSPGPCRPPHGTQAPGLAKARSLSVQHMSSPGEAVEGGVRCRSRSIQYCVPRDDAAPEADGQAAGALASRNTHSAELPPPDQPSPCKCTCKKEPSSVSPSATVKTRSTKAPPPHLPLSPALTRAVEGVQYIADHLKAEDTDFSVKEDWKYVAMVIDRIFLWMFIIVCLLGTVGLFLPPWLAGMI
With `CC1C[N+]2(CCN(CCc3ccccc3)CC2)CC(C)O1.[Cl-]` (stereo not given), the IC50 is over 10 µM.

For the next test, the system named is Mus musculus. Briefly: […] in ip dosed nociception mouse model. It is filed as functional.
Consider `CC1C[N+]2(CCN(CCc3ccccc3)CC2)CC(C)O1.[Cl-]` (stereo not given), for which the LD50 worked out at 1550 µmol/kg.

The next test concerns Mus musculus. Briefly: Analgesic activity in mouse assessed as inhibition of acetic acid-induced writhing responses at 31 umol/kg, ip between 5 to 10 mins. The format is functional. On the set-up: scale not given: the % may be the effect or the level left. In general terms: In writhing tests, fewer writhes than in controls are read as antinociception.
`CC1C[N+]2(CCN(CCc3ccccc3)CC2)CC(C)O1.[Cl-]` (stereo not given): the Activity turned out to be 65%.

As for `C[N+]1(C)CCN(c2cccc([N+](=O)[O-])c2)CC1.[I-]`, the Activity is given as -16%.

On to `CC1C[N+]2(CCN(Cc3ccccc3)CC2)CC(C)O1.[Cl-]` (stereo not given), for which the Activity was found to be 21%.

With `CC1C[N+]2(CCN(CCc3ccccn3)CC2)CC(C)O1.[Cl-]` (stereo not given), the Activity is recorded as -2%.

With `CC1C[N+]2(CCN(CCc3ccc([N+](=O)[O-])cc3)CC2)CC(C)O1.[Cl-]` (stereo not given), the Activity is on record as -24%.

Regarding `CC1C[N+]2(CCN(CCCc3ccccc3)CC2)CC(C)O1.[Cl-]` (stereo not given), the Activity is -19%.

For the compound `COc1ccc(N2CC[N+]3(CCCC3)CC2)cc1.[Br-]`, the Activity is 56%.

Consider `COc1ccc(CCN2CC[N+]3(CC2)CC(C)OC(C)C3)cc1.[Cl-]` (stereo not given), for which the Activity is -47%.

As to `[Cl-].c1ccc(CCN2CC[N+]3(CCCCCC3)CC2)cc1`, the Activity is listed as 4%.

For `[Br-].c1ccc(N2CC[N+]3(CCCC3)CC2)cc1`, the Activity turned out to be 20%.

On to `CC1C[N+]2(CCN(C/C=C/c3ccccc3)CC2)CC(C)O1.[Cl-]` (stereo not given), for which the Activity is recorded as -43%.

For the compound `C=CCN1CC[N+]2(CC1)CC(C)OC(C)C2.[Cl-]` (stereo not given), the Activity is 49%.

On to `[Cl-].c1ccc(CCN2CC[N+]3(CCCCC3)CC2)cc1`, for which the Activity is given as 5%.

Take `C[N+]1(C)CCN(c2cccc([N+](=O)[O-])c2)CC1.[Br-]`: the Activity is reported as 22%.

`[Cl-].c1ccc(CCN2CC[N+]3(CCCC3)CC2)cc1`: the Activity is given as -36%.

`O=[N+]([O-])c1cccc(N2CC[N+]3(CCCC3)CC2)c1.[Br-]`: the Activity came to 61%.

On to `C[N+]1(C)CCN(CCc2ccccc2)CC1.[Cl-]`, for which the Activity stood at 18%.

Turning to `O=[N+]([O-])c1ccc(N2CC[N+]3(CCCC3)CC2)cc1.[Br-]`, the Activity was 16%.
